Measured values: patent US6358990B1, “Method for treating Alzheimer's disease” (Boehringer Mannheim Pharmaceuticals Corp., priority 1997, dated 2002)

Tested on: IMR32 human neuroblastoma cells
Experiment: Inhibition of the formation of toxic aggregates of beta-amyloid 1-40 peptide (MTT reduction in IMR32 cells)
Format: cell-based
Experimental: Determination of the Inhibition of the Formation of Toxic Aggregates of Beta-Amyloid 1-40 Peptide
Beta-amyloid (1-40) peptide from Bachem UK was dissolved in 0.1% acetic acid at 2 mg/ml and further diluted to 55 ug/ml in phosphate buffered saline (Sigma P4417) containing 0.02% Tween 20 (PBS-Tween). Candidate inhibitors were dissolved in DMSO at 10 mg/ml and further diluted in PBS-Tween. For each candidate inhibitor, 45 ul of 55 ug/ml peptide solution was incubated with 5 ul of appropriately diluted inhibitor overnight at 37° C. in Linbro Titertek EIA II shallow well plates (ICN, EIA II Microplates, cat no. 76-181-04). Plates were sealed with Dynatech Labs (cat # 001-010 3501) plate sealers.
MTT (3(4,5-dimethylthiazol-2-yl)-2,5-diphenyl tetrazolium bromide—Sigma) is a metabolic dye taken up by the mitochondria of viable cells and metabolised, yielding a blue formazan crystalline product. […]
For the assessment of toxicity, IMR32 human neuroblastoma cells (ECACC, Porton Down, UK) were plated at 6×10^4 cells/cm^2 in a 96 well microtitre plate (Nunc) in a volume of 100 ul growth medium (DMEM:Hams F12 1:1) per well and incubated for 2 h (CO2 incubator, 37° C.). […] Plates were read at 590 nm and inhibition of toxicity assessed as the difference in OD reading between cells in the presence and absence of candidate inhibitors. […]

## COc1ccccc1OCCNCC(O)COc1cccc2[nH]c3ccccc3c12 (centres unmarked) [carvedilol]
50 ug/ml beta-amyloid 1-40 incubated overnight with 50 ug/ml carvedilol, cells challenged with 0 to 10 ng/ml beta-amyloid 1-40
  shift of the beta-amyloid 1-40 concentration-response curve (decrease in MTT reduction): marked shift to the right
50 ug/ml carvedilol during the aggregation step, 0.1 to 1 ng/ml of peptide on IMR32 cells
  decrease in MTT reduction: no decrease in MTT reduction was observed
